The record followed here is patent US20110053770A1, “SUBSTITUTED AMINOTHIAZOLES AND THEIR USE AS FUNGICIDES” (BAYER CROPSCIENCE AG, priority 2009, published 2011).

The series in a line: logP by HPLC on reversed-phase columns (C 18), EEC directive 79/831 Annex V.A8. In kind it is physicochemical. The settings on record: for log P (**): pH 2.7, 0.1% aqueous formic acid and acetonitrile. The method, then:
Calibration was carried out using unbranched alkan-2-ones (having from 3 to 16 carbon atoms) with known logP values (the logP values were determined by the retention times using linear interpolation between two successive alkanones).

Marks after values point to notes of the source that are not given here.

Turning to `Clc1ccc(-c2csc(N=C3CCCCN3)n2)c(Cl)c1` [compound 104, 4-(2,4-dichlorophenyl)-N-[(2E/Z)-piperidin-2-ylidene]-1,3-thiazole-2-amine], for the setting “LC-MS, acidic range”, the “log P (**)” value is listed as 1.76. In addition, the “log P (***)” value (LC-MS, neutral range, pH 7.8, 0.001 molar aqueous ammonium bicarbonate and acetonitrile) came out at 3.92. Besides, the “log P (*)” value (acidic range, pH 2.3, 0.1% aqueous phosphoric acid and acetonitrile) is given as 1.76.

In the case of `FC(F)(F)c1cccc(-c2csc(N=C3CCCCN3)n2)c1` [compound 105, N-[(2E/Z)-piperidin-2-ylidene]-4-[3-(trifluoromethyl)phenyl]-1,3-thiazole-2-amine], for the setting “LC-MS, acidic range”, the “log P (**)” value is 1.75**. The same measure, in the same setting: for `Brc1cccc(-c2csc(N=C3CCCCN3)n2)c1` [compound 106, 4-(3-bromophenyl)-N-[(2E/Z)-piperidin-2-ylidene]-1,3-thiazole-2-amine] the value was 1.53**; for `Brc1ccccc1-c1csc(N=C2CCCCN2)n1` [compound 107, 4-(2-bromophenyl)-N-[(2E/Z)-piperidin-2-ylidene]-1,3-thiazole-2-amine], 1.38**.
